# Laboratory results from publication PMC11165727, “Improvement effects of a novel Chinese herbal formula in imiquimod and IL-23-stimulated mouse models of psoriasis” (Chinese Medicine, 2024).
# Assays:
# [1] = Pharmacokinetics of ISDF in rats: baicalin in plasma; type: in vivo, Sprague–Dawley rats; settings: oral ISDF 18.90 g/kg
# Experimental: The rats were split into two groups, with 6 animals each: (a) an untreated control group, and (b) a group that received ISDF at a dosage of 18.90 g/kg. The rats were fasted overnight but had access to distilled water. Blood samples, around 0.4 mL, were harvested from the orbital bleeding while they were under anaesthesia with isoflurane. The blood samples were collected at several time points (5, 15, 30, 60, 120, 240, 480, and 1440 min) after the oral administration of ISDF to the rats. The blood was then centrifuged at 5000 rpm for 20 min (at 4 °C) to separate the plasma (upper) and blood cells (lower). The plasma (0.2 mL) was added with […] KH2PO4 (0.2 mL) and 1 mL methanol and acetonitrile (1:1) and vortexed for 10 min to precipitate protein, and then centrifugated at 10,000 rpm for five min to collect the supernatant. The supernatant was filtered, dried under nitrogen and then re-dissolved in methanol (0.2 mL) and stored at 4 °C [18]. The HPLC method was used to identify and quantify baicalin in plasma and berberine in erythrocytes, as previously published. All the data were shown as mean ± SEM. One-way ANOVA followed by the Bonferroni test was performed using GraphPad Prism v9.0. Statistical significance between experimental groups was considered when p < 0.05. The pharmacokinetics profile of ISDF was calculated using Drug and Statistics (DAS, China) software v2.0.
# [2] = Pharmacokinetics of ISDF in rats: berberine in erythrocytes; type: in vivo, Sprague–Dawley rats; settings: oral ISDF 18.90 g/kg
# Experimental: The rats were split into two groups, with 6 animals each: (a) an untreated control group, and (b) a group that received ISDF at a dosage of 18.90 g/kg. The rats were fasted overnight but had access to distilled water. Blood samples, around 0.4 mL, were harvested from the orbital bleeding while they were under anaesthesia with isoflurane. The blood samples were collected at several time points (5, 15, 30, 60, 120, 240, 480, and 1440 min) after the oral administration of ISDF to the rats. The blood was then centrifuged at 5000 rpm for 20 min (at 4 °C) to separate the plasma (upper) and blood cells (lower). The blood cells were washed thrice with cold 0.9% saline, and then centrifuged at 3500 rpm for five min. The resulting erythrocytes were suspended in cold 0.9% saline (0.5 mL). Afterwards, the erythrocytes were mixed with an equal volume of 15% hydrochloric acid and heated at 60 ℃ for 6 h. They were then centrifugated at 12,000 rpm for 10 min to collect the supernatant, which was filtered and dried under nitrogen. Finally, it was re-dissolved with 0.2 mL methanol. The HPLC method was used to identify and quantify baicalin in plasma and berberine in erythrocytes, as previously published. All the data were shown as mean ± SEM. One-way ANOVA followed by the Bonferroni test was performed using GraphPad Prism v9.0. Statistical significance between experimental groups was considered when p < 0.05. The pharmacokinetics profile of ISDF was calculated using Drug and Statistics (DAS, China) software v2.0.
# [3] = tested on: IMQ-induced mouse psoriasis model; experiment: IMQ-induced mouse psoriasis model: body weight, dorsal skin thickness, PASI, epidermal thickness; type: in vivo, Balb/c mice
# Experimental: (§1) A total of 48 Balb/c mice were randomly assigned to: (a) normal control group (NC); (b) IMQ group; (c) IMQ plus dexamethasone (DXM, as the positive control, 3 mg/kg) group; and (d-f) IMQ plus ISDF (3.15, 6.30 and 9.45 g/kg) groups. All mice, except the NC group, were topically dosed with 62.5 mg Aldara (iNova pharmaceuticals, Australia) daily on the shaved dorsal skin. After the seven-day sensitization of IMQ, the psoriasis symptoms appeared on the dorsal area. Between day 8 and day 22, Aldara cream was applied once every three days for a total of six applications, with each application consisting of 62.5 mg of the cream being applied to the same area. ISDF and DXM were suspended in 0.5% CMC-Na and orally given to the mice once daily for two weeks. Treatments were initiated seven days after the first IMQ sensitization. The mice in the NC group and the IMQ group were administered with only the vehicle for two weeks. (Fig. 1A).
# (§2) The severity of psoriatic lesions on the dorsal area of mice was assessed by psoriasis area and severity index (PASI). The researcher scored the degree of erythema and skin scaling on a scale of zero to four, where 0: no symptoms, 1: slight, 2: moderate, 3: severe, and 4: very severe. The dorsal skin thickness was measured using an electronic vernier caliper which was placed on the middle line of the dorsal area.
# (§3) The dorsal skin tissues were harvested and fixed in 4% paraformaldehyde (PFA) for one day and then embedded in paraffin, followed by section, deparaffinization and rehydration. Five-micrometre sections of dorsal skin were stained with hematoxylin & eosin and observed through a light microscope (Zeiss AxioObserver Z1, Germany) to assess histopathological changes.
# [4] = tested on: IL-17A, IL-22, IL-6, IL-4; experiment: ELISA of inflammatory cytokines in serum and dorsal skin of IMQ-induced mice; type: in vivo, Balb/c mice; settings: IMQ model; DXM 3 mg/kg oral; vs IMQ group
# Experimental: as §1
# (§4) After the last drug treatment, blood samples were harvested and stored at room temperature for one hour, and then centrifuged at 3500 rpm for 20 min. The ELISA kits were used to collect the supernatant and determine the contents of IL-17A (ab199081), IL-22 (ab223857), IL-6 (ab222503) (Abcam, USA) and IL-23 (BMS6017, Thermo Fisher Scientific, USA). After being sacrificed, mouse skin tissues were collected, homogenized with cell extract buffer from Abcam, USA, and centrifuged at 12,000 rpm for 30 min (at 4 °C). The skin samples were analyzed for total protein contents using a […] assay kit. The concentrations of IL-4, IL-17A, IL-22 and IL-23 in the supernatant were determined.
# [5] = tested on: gene expression of IL-4, IL-6, IL-1β and TNF-α; experiment: Real-time PCR on dorsal skin tissues of IMQ-induced mice; type: in vivo, Balb/c mice; settings: IMQ model; DXM 3 mg/kg oral
# Experimental: as §1
# The same experimental procedure was used as described in our previous study. In the present study, we conducted Mouse TaqMan gene expression assays using the following assay IDs: IL-4 (Mm00445259_m1), IL-6 (Mm00446190_m1), IL-1β (Mm00434228_m1), TNF-α (Mm00443258_m1) and β-actin (Mm02619580_g1).
# [6] = tested on: IL-23-induced mouse psoriasis model; experiment: IL-23-induced mouse psoriasis model: body weight, dorsal skin thickness, PASI, epidermal thickness; type: in vivo, C57 mice; settings: IL-23 model, DXM 3 mg/kg oral
# Experimental: (§5) A total of 48 C57 mice were randomly assigned to: (a) NC group; (b) IL-23 group; (c) IL-23 plus DXM (3 mg/kg) group; and (d–f) IL-23 plus ISDF (3.15, 6.30 and 9.45 g/kg) groups. Firstly, mice were pre-treated with ISDF or DXM before IL-23 injection. 0.5% CMC-Na was used to suspend ISDF and DXM which were orally given to mice once daily for two weeks, and the mice in the NC group and the IL-23 group were treated with only the vehicle for two weeks. The IL-23 administration was initiated 7 days post the first ISDF/DXM treatment. From day 8, mice concurrently orally received with ISDF/DXM treatment and intradermal injections of recombinant mouse IL-23 (Biolegend, USA) in two locations on the shaved dorsal skin at 1 μg/mouse/day using a 30-gauge needle for seven days. Sterile saline was used as the vehicle control for the NC group. After the seven-day sensitization of IL-23, the psoriasis symptoms appeared on the dorsal area of the mice. The weight of the mice and their dorsal skin thickness was monitored (on day 1, 7, and 14). On the last day, the scoring of the skin psoriasis severity was determined according to PASI after the last drug treatment (Fig. 2A).
# as §2, §3
# IL-17A, IL-22, IL-23 = experiment: ELISA of cytokines in serum and injected skin of IL-23-induced mice; type: in vivo, C57 mice; settings: IL-23 model; DXM 3 mg/kg oral; vs IL-23 group
# Experimental: as §5, §4
# [7] = Sprague-Dawley, rat, 18.9 g/kg, read-out: Area under the curve (AUC0-∞)
# [8] = Sprague-Dawley, rat, 18.9 g/kg, read-out: Mean residence time (MRT0-t)
# [9] = Sprague-Dawley, rat, 18.9 g/kg, read-out: The maximum concentration (Cmax)
compound,measurement,setting,value
"O=C(O)[C@H]1O[C@@H](Oc2cc3oc(-c4ccccc4)cc(=O)c3c(O)c2O)[C@H](O)[C@@H](O)[C@@H]1O [Baicalin, baicalin]",AUC(0-inf),[1]; [7],10000 ± 810 ng·h/mL
same,MRT last,[1]; [8],7.98 ± 0.61 h
same,Cmax,[1]; [9],670 ± 60 ng/mL
same,The time required for drug concentration to decrease by 50% (t1/2),[1],14.06 ± 3.25 h
same,Time to reach Cmax (Tmax),[1],2.01 ± 0.28 h
"COc1ccc2cc3[n+](cc2c1OC)CCc1cc2c(cc1-3)OCO2 [Berberine, berberine]",AUC(0-inf),[2]; [7],24200 ± 17400 ng·h/mL
same,MRT last,[2]; [8],9.24 ± 1.31 h
same,Cmax,[2]; [9],1440 ± 710 ng/mL
same,The time required for drug concentration to decrease by 50% (t1/2),[2],10.77 ± 5.80 h
same,Time to reach Cmax (Tmax),[2],2.33 ± 1.52 h
"C[C@@H]1C[C@H]2[C@@H]3CCC4=CC(=O)C=C[C@]4(C)[C@@]3(F)[C@@H](O)C[C@]2(C)[C@@]1(O)C(=O)CO [DXM, dexamethasone]",Body weight,"[3]; DXM 3 mg/kg oral once daily, days 14 and 21, vs NC group",remarkable decrease
same,Decrease in PASI score,"[3]; DXM 3 mg/kg oral, day 21, vs IMQ group",79.41%
same,Reduction of dorsal skin thickness,"[3]; DXM 3 mg/kg oral, two-week treatment, vs IMQ group",51.69%
same,Decrease of epidermal thickness,"[3]; DXM 3 mg/kg oral, vs IMQ group",52.75%
same,Decrease of serum IL-17A,[4],91.29%
same,Reduction of IL-17A content in dorsal skin,[4],75.98%
same,Reduction of serum IL-6,[4],88.91%
same,Reduction of serum IL-22,[4],67.47%
same,"Gene expression of IL-4, IL-6, IL-1β and TNF-α in skin",[5],substantially down-regulate
same,Body weight,[6],significantly induced a body weight reduction
same,Decrease of dorsal skin thickness,"[6]; day 14, vs IL-23 group",55.14%
same,Reduction of PASI score,"[6]; day 14, vs IL-23 group",85.24%
same,Decrease of epidermal thickness,[6]; vs IL-23 group,72.26%
same,Decrease of IL-23 level in the injected skin,"IL-17A, IL-22, IL-23",43.34%
same,Reduction of serum IL-17A,"IL-17A, IL-22, IL-23",62.20%
same,Reduction of serum IL-22 content,"IL-17A, IL-22, IL-23",39.12%
